This passage reports inhibition results from paper PMC6934184, “Selective DNA-PKcs inhibition extends the therapeutic index of localized radiotherapy and chemotherapy” (The Journal of Clinical Investigation, 2019).

This test has as its target T1, MAPK14 (p38 alpha) (Homo sapiens, UniProt Q16539).
T1 construct: purchased Thermo Fisher Scientific (Life Technologies) SelectScreen
Briefly: SelectScreen Z'LYTE. In kind it is biochemical. A digest of the protocol:
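NU5455 was profiled across the SelectScreen Broad panel of kinase activity and binding assays. Z'LYTE reactions such as CSF1R ran at apparent Km ATP, while the Adapta CAMK1 assay used ATP listed as 10. Values are given as percent.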

T1 sequence (Q16539 whole entry): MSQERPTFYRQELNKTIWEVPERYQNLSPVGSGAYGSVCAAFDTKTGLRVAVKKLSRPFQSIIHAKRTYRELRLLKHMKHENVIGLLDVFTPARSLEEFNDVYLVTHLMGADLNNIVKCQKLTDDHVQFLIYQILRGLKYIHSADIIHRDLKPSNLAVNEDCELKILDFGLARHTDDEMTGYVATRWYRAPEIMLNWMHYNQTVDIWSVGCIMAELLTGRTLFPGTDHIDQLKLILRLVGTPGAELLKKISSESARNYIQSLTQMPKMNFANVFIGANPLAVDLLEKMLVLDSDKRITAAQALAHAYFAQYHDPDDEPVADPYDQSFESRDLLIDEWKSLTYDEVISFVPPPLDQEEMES

`CN(C(=O)CN1CCOCC1)c1ccc2sc3c(-c4cccc5c(=O)cc(N6CC7CCC(C6)O7)oc45)cccc3c2c1` [NU5455] yielded an inhibition at 1 µM of 9.7%.

What is called inhibition is the percentage by which the read-out fell short of the control.
